Results published in paper PMC10383573, “New Imadazopyrazines with CDK9 Inhibitory Activity as Anticancer and Antiviral: Synthesis, In Silico, and In Vitro Evaluation Approaches” (Pharmaceuticals, 2023).
Read-outs that look alike come from different tables or passages of the source.

Legend:
CDK9 [1] = target: T1, CDK9 (Homo sapiens, UniProt P50750); parameters: purchased BPS Biosciences (San Diego, CA); conditions: compound 2 of Figure 1; ref [40]; cited from earlier work
three cancer cell lines = conditions: average of three cancer cell lines, ref [40], cited from earlier work
CDK2 = conditions: new-generation CDK9 inhibitors; ref [21] (Atuveciclib), [32] (BAY-1251152); cited from earlier work
CDK7 = conditions: new-generation CDK9 inhibitors; ref [21]; cited from earlier work
CDK5 = conditions: new-generation CDK9 inhibitors; ref [21]; cited from earlier work
[2] = test system: six breast cancer cell lines; conditions: read-out: Cytotoxicity IC50; average of six breast cancer cell lines; ref [38],[39]; cited from earlier work
[3] = Cytotoxicity on target cells in the antiviral assay; conditions: target cells of the HCoV-229E antiviral assay
FHC normal cells = assay: MTT assay against FHC normal cells; assay type: cell-based; conditions: for SI (Selectivity Index) HCT116: FHC versus HCT116; for SI (Selectivity Index) K652: FHC versus K652; for SI (Selectivity Index) MCF7: FHC versus MCF7; for IC50: read-out: FHC IC50
Experimental: (§1) The MTT assay was used to monitor the in vitro cytotoxicity of our compounds. […] Then, the cells were incubated with 10% v/v reconstituted MTT at 37 °C for 3 h.

CDK9 [4] = target: T1, CDK9; assay: In vitro CDK9 kinase assay (BPS Biosciences kit)
Experimental: The in vitro kinase activity was measured using a CDK9 assay kit obtained from BPS Biosciences (San Diego, CA). The inhibitory effect of the tested compounds was assessed following the manufacturer’s instructions as indicated in the kit. GraphPad Prism 5.0 software was used to analyze the results.

HCT116 cancer cells = assay: MTT cytotoxicity assay, HCT116; assay type: cell-based; conditions: Homo sapiens, HCT-116, 48 h, means (SD) of three trials
Experimental: (§2) The cytotoxicity effect of the new compounds was assessed in an MTT assay against chronic myelogenous leukemia (K652), colorectal (HCT116), and breast (MCF7) cancer cell lines. […] The data is presented in Table 4 as IC50 values (in µM).
(§3) Cells were obtained from American Type Culture Collection. The cell culture DMEM was obtained from Life Technologies and Invitrogen and supplied with 10% FBS from Hyclone, 1% penicillin-streptomycin, and 10 µg/mL insulin from Sigma-Aldrich.
as §1

[5] = test system: MCF7, HCT116, and K652 cancer cells; assay: MTT cytotoxicity assay, average of the three cell lines; assay type: cell-based
Experimental: as §2, §3, §1

MCF7 cancer cells = assay: MTT cytotoxicity assay, MCF7; assay type: cell-based; conditions: Homo sapiens, 48 h, means (SD) of three trials
Experimental: as §2, §3
The MTT assay was used to monitor the in vitro cytotoxicity of our compounds. […] Then, the cells were incubated with 10% v/v reconstituted MTT at 37 °C for 3 h. The multiwell plates were then read using Wallac Victor2 1420 multilabel counter, and the absorbance was measured at a wavelength of 450 (ex) and 590 nm (em).

K652 cancer cells = assay: MTT cytotoxicity assay, K652; assay type: cell-based; conditions: K652, 48 h, read-out: IC50 K652
Experimental: as §2, §3, §1

[6] = test system: human Coronavirus (HCoV-229E); assay: 229E inhibitory assay (cytopathic inhibition effect); assay type: cell-based, human Coronavirus 229E; conditions: for IC50: read-out: IC50 229E inhibitory effect
Experimental: The antiviral effect of the compounds was examined in a human Coronavirus (HCoV-229E) inhibitory assay. The standard ribavirin (a well-established antiviral agent) was used as a positive control in this experiment.
The cytopathic inhibition effect was used to assess the antiviral and cytotoxicity of the compounds using a method described by Choi et al. (2009). Coronavirus 229E cells were used in this assay. The antiviral activity of the tested compounds was measured as a percentage using a method described by Pauwels et al.’s (1988) research. GraphPad Prism 5.0 software was used to analyze the results. Ribavirin was used as a positive standard in this assay, and DMSO was used as a negative standard.

[7] = MTT assay, normal noncancerous cells
[8] = HCoV-229E, cytopathic effect inhibition

T1 sequence (P50750 whole entry): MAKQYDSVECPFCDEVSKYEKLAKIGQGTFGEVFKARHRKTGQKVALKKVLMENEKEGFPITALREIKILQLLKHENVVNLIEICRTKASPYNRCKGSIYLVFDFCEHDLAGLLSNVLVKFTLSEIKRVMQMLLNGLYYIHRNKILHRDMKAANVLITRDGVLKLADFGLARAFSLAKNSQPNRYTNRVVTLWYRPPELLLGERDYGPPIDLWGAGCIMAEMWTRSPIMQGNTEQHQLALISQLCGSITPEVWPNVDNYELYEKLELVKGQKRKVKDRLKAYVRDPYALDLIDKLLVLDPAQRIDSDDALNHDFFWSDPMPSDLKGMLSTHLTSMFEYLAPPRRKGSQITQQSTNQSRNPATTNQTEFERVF
T1 sequence (O60563 whole entry, further chain): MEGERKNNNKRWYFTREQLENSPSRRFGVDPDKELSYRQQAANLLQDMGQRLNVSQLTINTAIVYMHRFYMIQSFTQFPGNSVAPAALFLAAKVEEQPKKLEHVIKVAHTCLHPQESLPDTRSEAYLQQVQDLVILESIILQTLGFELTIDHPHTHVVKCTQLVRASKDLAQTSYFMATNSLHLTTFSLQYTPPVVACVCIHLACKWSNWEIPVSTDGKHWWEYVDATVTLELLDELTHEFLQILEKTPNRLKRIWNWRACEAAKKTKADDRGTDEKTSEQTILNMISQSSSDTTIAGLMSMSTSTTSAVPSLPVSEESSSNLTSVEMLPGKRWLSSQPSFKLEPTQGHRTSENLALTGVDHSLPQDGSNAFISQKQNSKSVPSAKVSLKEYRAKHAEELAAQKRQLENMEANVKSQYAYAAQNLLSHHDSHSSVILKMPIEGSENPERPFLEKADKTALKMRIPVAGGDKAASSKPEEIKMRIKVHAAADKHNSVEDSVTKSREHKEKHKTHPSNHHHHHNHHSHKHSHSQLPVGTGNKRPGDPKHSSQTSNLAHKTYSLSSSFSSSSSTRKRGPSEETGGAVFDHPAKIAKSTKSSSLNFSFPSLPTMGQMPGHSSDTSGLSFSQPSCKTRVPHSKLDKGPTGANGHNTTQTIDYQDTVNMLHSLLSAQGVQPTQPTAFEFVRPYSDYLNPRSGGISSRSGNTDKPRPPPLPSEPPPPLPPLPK

2-phenylimidazopyrazin-3-amine [Compound 2]
CDK9 IC50 (CDK9 [1]): submicromolar
IC50 (CDK9 [1]): 0.166 µM
Cytotoxicity IC50 (three cancer cell lines): single-digit
IC50 (three cancer cell lines; read-out: Cytotoxicity IC50): 6.66 µM

COc1cc(F)ccc1-c1ncnc(Nc2cccc(C[S@](C)(=N)=O)c2)n1 [Atuveciclib]
IC50 (CDK2): 1 µM
IC50 (CDK7): > 10 µM
IC50 (CDK5): 1.6 µM

COc1cc(F)ccc1-c1cc(Nc2cc(CS(C)(=N)=O)ccn2)ncc1F (stereo not shown) [BAY-1251152]
IC50 (CDK2): 2.92 µM

Oc1ccc(-c2nc3cnccn3c2NCCc2ccccc2)cc1O [Compound 1]
IC50 [2]: 34.8 µM

CC(C)(C)Nc1c(-c2ccoc2)nc2cnccn12 [Compound 1a, N-(Tert-butyl)-2-(furan-3-yl) imidazo[1,2-a] pyrazin-3-amine]
CC50 [3]: 1320 µM
SI (Selectivity Index) HCT116 (FHC normal cells): 2.7
SI (Selectivity Index) K652 (FHC normal cells): 4.3
SI (Selectivity Index) MCF7 (FHC normal cells): 20.5
IC50 (FHC normal cells; [7]): 58.6 ± 0.8 µM
IC50 (CDK9 [4]): 0.19 ± 0.003 µM
IC50 (HCT116 cancer cells): 21.6 ± 0.29 µM
IC50 [5]: 12.6 µM
IC50 (MCF7 cancer cells): 2.85 ± 0.03 µM
IC50 (K652 cancer cells): 13.4 ± 0.19 µM
SI selectivity index (CC50/IC50) ([6]; HCoV-229E): 1.25
IC50 [6, 8]: 1060 µM

c1cn2c(NC3CCCCC3)c(-c3ccoc3)nc2cn1 [Compound 1b, N-Cyclohexyl-2-(furan-3-yl) imidazo[1,2-a] pyrazin-3-amine]
IC50 (CDK9 [4]): 1.78 ± 0.029 µM
IC50 (HCT116 cancer cells): 164 ± 2.1 µM
IC50 [5]: 144 µM
IC50 (MCF7 cancer cells): 99.2 ± 3.08 µM
IC50 (K652 cancer cells): 168 ± 5.99 µM

c1ccc(CNc2c(-c3ccoc3)nc3cnccn23)cc1 [Compound 1c, N-Benzyl-2-(furan-3-yl) imidazo[1,2-a]pyrazin-3-amine]
CC50 [3]: 653 µM
IC50 (FHC normal cells): 61.7 ± 0.96 µM
IC50 (CDK9 [4]): 0.46 ± 0.008 µM
IC50 (HCT116 cancer cells): 16.4 ± 0.69 µM
IC50 [5]: 19.5 µM
IC50 (MCF7 cancer cells): 17.4 ± 0.34 µM
IC50 (K652 cancer cells): 24.8 ± 0.61 µM
IC50 [6]: 516 µM

COc1ccc(Nc2c(-c3ccoc3)nc3cnccn23)cc1 [Compound 1d, 2-(Furan-3-yl)-N-(4-methoxyphenyl) imidazo[1,2-a] pyrazin-3-amine]
CC50 [3]: 846 µM
IC50 (FHC normal cells; [7]): 187 ± 2.92 µM
IC50 (CDK9 [4]): 0.18 ± 0.003 µM
IC50 (HCT116 cancer cells): 10.7 ± 0.16 µM
IC50 [5]: 11.6 µM
IC50 (MCF7 cancer cells): 12.3 ± 0.17 µM
IC50 (K652 cancer cells): 11.8 ± 0.19 µM
SI selectivity index (CC50/IC50) ([6]; HCoV-229E): 1.27
IC50 [6, 8]: 405 µM

CC(C)(C)Nc1c(-c2ccc(O)cc2O)nc2cnccn12 [Compound 2a, 4-(3-(Tert-butylamino)imidazo[1,2-a]pyrazin-2-yl)benzene-1,3-diol]
IC50 (CDK9 [4]): 0.45 ± 0.008 µM
IC50 (HCT116 cancer cells): 136.4 ± 0.25 µM
IC50 [5]: 85.2 µM
IC50 (MCF7 cancer cells): 48.26 ± 0.24 µM
IC50 (K652 cancer cells): 71.05 ± 0.39 µM

Oc1ccc(-c2nc3cnccn3c2NC2CCCCC2)c(O)c1 [Compound 2b, 4-(3-(Cyclohexylamino)imidazo[1,2-a]pyrazin-2-yl)benzene-1,3-diol]
IC50 (CDK9 [4]): 0.3 ± 0.006 µM
IC50 (HCT116 cancer cells): 7.61 ± 2.12 µM
IC50 [5]: 30.8 µM
IC50 (MCF7 cancer cells): 45.9 ± 0.67 µM
IC50 (K652 cancer cells): 38.8 ± 1.16 µM

Oc1ccc(-c2nc3cnccn3c2NCc2ccccc2)c(O)c1 [Compound 2c, 4-(3-(Benzylamino)imidazo[1,2-a]pyrazin-2-yl)benzene-1,3-diol]
IC50 (CDK9 [4]): 0.65 ± 0.011 µM
IC50 (HCT116 cancer cells): 56.56 ± 0.13 µM
IC50 [5]: 56.8 µM
IC50 (MCF7 cancer cells): 63.5 ± 0.7 µM
IC50 (K652 cancer cells): 50.2 ± 0.69 µM

COc1ccc(Nc2c(-c3ccc(O)cc3O)nc3cnccn23)cc1 [Compound 2d, 4-(3-((4-Methoxyphenyl)amino)imidazo[1,2-a]pyrazin-2-yl)benzene-1,3-diol]
IC50 (CDK9 [4]): 0.89 ± 0.018 µM
IC50 (HCT116 cancer cells): 104 ± 0.98 µM
IC50 [5]: 66.8 µM
IC50 (MCF7 cancer cells): 71.2 ± 0.99 µM
IC50 (K652 cancer cells): 25.3 ± 0.91 µM

CN(C)c1ccc(-c2nc3cnccn3c2NC(C)(C)C)cn1 [Compound 3a, N-(Tert-butyl)-2-(6-(dimethylamino)pyridin-3-yl)imidazo[1,2-a]pyrazin-3-amine]
CC50 [3]: 186 µM
IC50 (CDK9 [4]): 0.3 ± 0.005 µM
IC50 (HCT116 cancer cells): 4.13 ± 0.07 µM
IC50 [5]: 35.1 µM
IC50 (MCF7 cancer cells): 22.8 ± 0.33 µM
IC50 (K652 cancer cells): 78.2 ± 1.32 µM
SI selectivity index (CC50/IC50) ([6]; HCoV-229E): 0.48
IC50 [6, 8]: 393 µM

CN(C)c1ccc(-c2nc3cnccn3c2NC2CCCCC2)cn1 [Compound 3b, N-Cyclohexyl-2-(6-(dimethylamino)pyridin-3-yl)imidazo[1,2-a]pyrazin-3-amine]
CC50 [3]: 213 µM
SI (Selectivity Index) HCT116 (FHC normal cells): 8.7
SI (Selectivity Index) K652 (FHC normal cells): 21.3
SI (Selectivity Index) MCF7 (FHC normal cells): 5.8
IC50 (FHC normal cells; [7]): 95.8 ± 1.72 µM
IC50 (CDK9 [4]): 0.23 ± 0.005 µM
IC50 (HCT116 cancer cells): 11 ± 0.19 µM
IC50 [5]: 10.7 µM
IC50 (MCF7 cancer cells): 16.4 ± 0.26 µM
IC50 (K652 cancer cells): 4.5 ± 0.08 µM
SI selectivity index (CC50/IC50) ([6]; HCoV-229E): 0.37
IC50 [6, 8]: 590 µM

CN(C)c1ccc(-c2nc3cnccn3c2NCc2ccccc2)cn1 [Compound 3c, N-Benzyl-2-(6-(dimethylamino)pyridin-3-yl)imidazo[1,2-a]pyrazin-3-amine]
IC50 (CDK9 [4]): 0.33 ± 0.007 µM
IC50 (HCT116 cancer cells): 42.2 ± 0.68 µM
IC50 [5]: 26 µM
IC50 (MCF7 cancer cells): 9.52 ± 0.15 µM
IC50 (K652 cancer cells): 26.4 ± 0.43 µM

COc1ccc(Nc2c(-c3ccc(N(C)C)nc3)nc3cnccn23)cc1 [Compound 3d, 2-(6-(Dimethylamino)pyridin-3-yl)-N-(4-methoxyphenyl) imidazo[1,2-a]pyrazin-3-amine]
IC50 (CDK9 [4]): 1.66 ± 0.034 µM
IC50 (HCT116 cancer cells): 147 ± 2.75 µM
IC50 [5]: 140 µM
IC50 (MCF7 cancer cells): 120 ± 2.02 µM
IC50 (K652 cancer cells): 153 ± 2.99 µM

CC(C)(C)Nc1c(-c2ccnc(F)c2)nc2cnccn12 [Compound 4a, N-(Tert-butyl)-2-(2-fluoropyridin-4-yl) imidazo[1,2-a] pyrazin-3-amine]
CC50 [3]: 303 µM
IC50 (CDK9 [4]): 0.24 ± 0.004 µM
IC50 (HCT116 cancer cells): 38.2 ± 0.51 µM
IC50 [5]: 20.7 µM
IC50 (MCF7 cancer cells): 4.38 ± 0.06 µM
IC50 (K652 cancer cells): 19.6 ± 0.26 µM
SI selectivity index (CC50/IC50) ([6]; HCoV-229E): 4.8
IC50 [6, 8]: 63.3 µM

Fc1cc(-c2nc3cnccn3c2NC2CCCCC2)ccn1 [Compound 4b, N-Cyclohexyl-2-(2-fluoropyridin-4-yl) imidazo[1,2-a] pyrazin-3-amine]
CC50 [3]: 174 µM
SI (Selectivity Index) HCT116 (FHC normal cells): 4.8
SI (Selectivity Index) K652 (FHC normal cells): 3.2
SI (Selectivity Index) MCF7 (FHC normal cells): 4.5
IC50 (FHC normal cells; [7]): 74.3 ± 1.26 µM
IC50 (CDK9 [4]): 1.22 ± 0.011 µM
IC50 (HCT116 cancer cells): 15.28 ± 0.13 µM
IC50 [5]: 18.2 µM
IC50 (MCF7 cancer cells): 16.2 ± 0.41 µM
IC50 (K652 cancer cells): 23.2 ± 0.81 µM
SI selectivity index (CC50/IC50) ([6]; HCoV-229E): 0.29
IC50 [6, 8]: 618 µM

Fc1cc(-c2nc3cnccn3c2NCc2ccccc2)ccn1 [Compound 4c, N-Benzyl-2-(2-fluoropyridin-4-yl) imidazo[1,2-a] pyrazin-3-amine]
CC50 [3]: 271 µM
IC50 (CDK9 [4]): 1.11 ± 0.02 µM
IC50 (HCT116 cancer cells): 97.4 ± 1.46 µM
IC50 [5]: 92.8 µM
IC50 (MCF7 cancer cells): 67.3 ± 1.01 µM
IC50 (K652 cancer cells): 114 ± 1.7 µM
SI selectivity index (CC50/IC50) ([6]; HCoV-229E): 0.9
IC50 [6, 8]: 331 µM

COc1ccc(Nc2c(-c3ccnc(F)c3)nc3cnccn23)cc1 [Compound 4d, 2-(2-Fluoropyridin-4-yl)-N-(4-methoxyphenyl) imidazo[1,2-a]pyrazin-3-amine]
IC50 (CDK9 [4]): 0.57 ± 0.011 µM
IC50 (HCT116 cancer cells): 10.2 ± 0.16 µM
IC50 [5]: 27.5 µM
IC50 (MCF7 cancer cells): 25.1 ± 0.39 µM
IC50 (K652 cancer cells): 47.11 ± 0.26 µM

NC(=O)c1ncn([C@@H]2O[C@H](CO)[C@@H](O)[C@H]2O)n1 [Ribavirin, reference compound]
CC50 [3]: 160 µM
SI selectivity index (CC50/IC50) ([6]; HCoV-229E): 1.4
IC50 [6, 8]: 114 µM

CN[C@@H]1C[C@H]2O[C@@](C)([C@@H]1OC)n1c3ccccc3c3c4c(c5c6ccccc6n2c5c31)C(=O)NC4 [Staurosporine, reference compound]
IC50 (MCF7 cancer cells): 18.4 ± 0.4 µM
